Source: US10399944B2, “Pyridin-2-one derivatives of formula (III) useful as EP3 receptor antagonists” (Janssen Pharmaceutica NV, priority 2017, dated 2019)

Key:
EP3 receptor [1] = target: T1, EP3 receptor (Homo sapiens, UniProt P43115); experiment: [3H]-PGE2 binding assay (EP3 competition binding, SPA beads)
T1 sequence (P43115 1-390): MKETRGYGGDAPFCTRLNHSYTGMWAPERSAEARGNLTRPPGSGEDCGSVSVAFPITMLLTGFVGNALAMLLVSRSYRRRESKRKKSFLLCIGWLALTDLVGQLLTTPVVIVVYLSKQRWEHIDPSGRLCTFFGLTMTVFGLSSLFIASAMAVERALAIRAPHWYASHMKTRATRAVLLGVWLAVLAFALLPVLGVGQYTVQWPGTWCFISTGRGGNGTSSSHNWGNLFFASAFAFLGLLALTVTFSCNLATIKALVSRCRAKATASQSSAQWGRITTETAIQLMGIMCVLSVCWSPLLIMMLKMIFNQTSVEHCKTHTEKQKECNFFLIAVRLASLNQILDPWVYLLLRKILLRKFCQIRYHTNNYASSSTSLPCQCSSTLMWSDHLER

EP3 receptor [2] = target: T1, EP3 receptor; experiment: CHO cell cAMP assay (forskolin and sulprostone stimulated, HTRF detection); assay type: cell-based; settings: sulprostone 700 nM (EC80) and FSK 2 μM (EC70); read-out: CHO_cAMP IC50
male Sprague Dawley rats = experiment: IV infused EP3 antagonists on circulating insulin and glucose in the sulprostone infusion IVGTT model; assay type: in vivo, rat; settings: IV bolus plus infusion at 7×Ki and 10×Ki (targeted), with 3 μg/kg/min sulprostone, SD rats
Source text: IV Infused EP3 Antagonists on Circulating Insulin and Glucose in the Sulprostone Infusion IVGTT Model
Jugular vein and carotid artery cannulated male Sprague Dawley rats (˜250 g, available from Charles River) were housed one rat per suspended cage in a temperature-controlled room with 12-hour light/dark cycle. The rats were allowed ad libitum access to water and maintained on a regular diet. Animals were acclimated for minimum 5 days prior to the start of the experiment. Experimental procedures were carried out in accordance with institutional standards for animal care and were approved by the institute's animal care and use committee.
A blood sample for insulin and blood chemistry was collected at 20 min (t=−20) prior to the start of dosing with sulprostone and/or test compound (EP3 antagonist). […]
Blood samples from all animals were collected into Heparin treated tubes. Background was measured via a glucometer at the 0 and 2 min time points to ensure that the animal received the glucose bolus. Plasma insulin was measured via a Meso Scale Discovery metabolic assay (available from Meso Scale). Plasma glucose, free fatty acid (FFA), triglycerides, cholesterol and ketones were measured on an OLYMPUS AU400E chemistry analyzer. Observations on animal health were recorded throughout the procedure. […]

mEP3 = target: T2, mEP3 (Mus musculus, UniProt P30557); experiment: mEP3 Ki used for dose targeting in the IVGTT model; assay type: binding
T2 sequence (P30557 1-365): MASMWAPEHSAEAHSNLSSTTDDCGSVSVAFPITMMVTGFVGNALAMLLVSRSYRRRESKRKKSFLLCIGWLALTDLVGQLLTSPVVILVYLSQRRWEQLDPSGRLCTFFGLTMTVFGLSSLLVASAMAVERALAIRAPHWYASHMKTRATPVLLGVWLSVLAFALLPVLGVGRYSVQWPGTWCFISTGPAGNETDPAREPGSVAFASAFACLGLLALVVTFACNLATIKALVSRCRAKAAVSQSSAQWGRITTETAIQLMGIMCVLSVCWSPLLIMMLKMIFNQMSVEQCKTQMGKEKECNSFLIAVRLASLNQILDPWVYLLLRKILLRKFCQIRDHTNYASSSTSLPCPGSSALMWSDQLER

| Compound | Ki (EP3 receptor [1]) [nM] | IC50 (EP3 receptor [2]) [nM] | Ki (mEP3) [nM] | suppression of glucose stimulate insulin secretion (GSIS) by sulprostone (male Sprague Dawley rats) |
| --- | --- | --- | --- | --- |
| CCN1CCOc2ccc(-c3ccc(C(/C=C4\OC(=O)NC4=O)C(C)C)c(=O)[nH]3)cc21 (stereo not drawn) [Compound #137] | 54 | 218 | – | – |
| CC(C)C(/C=C1\OC(=O)NC1=O)c1ccc(-c2ccc3cnsc3c2)[nH]c1=O (stereo not drawn) [Compound #93] | 1070 | 9940 | – | – |
| CCN1CCOc2cc(-c3ccc(C(/C=C4\OC(=O)NC4=O)C(C)C)c(=O)[nH]3)ccc21 (stereo not drawn) [Compound #121] | 73 | 363 | – | – |
| CC(C)[C@@H](c1ccc(-c2ccc3cccc(F)c3c2)[nH]c1=O)[C@H]1OC(=O)NC1=O (relative stereo) [Compound #59] | 85 | 611 | – | – |
| CCn1cc2c(F)c(-c3ccc(C(/C=C4/OC(=O)NC4=O)(CC)CC)c(=O)[nH]3)ccc2n1 [Compound #14] | > 10000 | > 20000 | – | – |
| CC(C)C1(c2ccc(-c3ccc4cccc(F)c4c3)[nH]c2=O)C(=O)Nc2nncn21 (stereo not drawn) [Compound #156] | 57 | 508 | – | – |
| CCn1ncc2c(F)cc(-c3ccc(C(/C=C4\OC(=O)NC4=O)C4CCCCC4)c(=O)[nH]3)cc21 (stereo not drawn) [Compound #127, 5-(2-cyclohexyl-2-(6-(1-ethyl-4-fluoro-1H-indazol-6-yl)-2-oxo-1,2-dihydropyridin-3-yl)ethylidene) oxazolidine-2,4-dione] | 46 | 548 | – | – |
| CCn1cnc2c(F)c(-c3ccc(C(C=C4OC(=O)NC4=O)C(C)C)c(=O)[nH]3)ccc21 (stereo not drawn) [Compound #90, 5-(2-(6-(1-ethyl-4-fluoro-1H-benzo[d]imidazol-5-yl)-2-oxo-1,2-dihydropyridin-3-yl)-3-methylbutyli-dene)oxazolidine-2,4-dione] | 633 | 5430 | – | – |
| CCn1ncc2c(F)cc(-c3[nH]c(=O)c(C(/C=C4\OC(=O)NC4=O)C(C)C)cc3Cl)cc21 (racemic) [Compound #125, 5-(2-(5-chloro-6-(1-ethyl-4-fluoro-1H-indazol-6-yl)-2-oxo-1,2-dihydropyridin-3-yl)-3-methylbutylidene) oxazolidine-2,4-dione] | 487 | 658 | – | – |
| CC(C)[C@H](C[C@@H]1OC(=O)NC1=O)c1ccc(-c2ccc3cccc(F)c3c2)[nH]c1=O (relative stereo) [Compound #81] | 6 | 15 | – | – |
| CCn1ncc2c(F)cc(-c3ccc(C(/C=C4\OC(=O)NC4=O)C(C)C)c(=O)[nH]3)cc21 (racemic) [Compound #94, 5-(2-(6-(1-ethyl-4-fluoro-1H-indazol-6-yl)-2-oxo-1,2-dihydropyridin-3-yl)-3-methylbutylidene)-oxazolidine-2,4-dione] | 20 | 181 | – | – |
| O=C1NC(=O)/C(=C\C2(c3ccc(-c4ccc5cccc(F)c5c4)[nH]c3=O)CC2)O1 [Compound #11] | 28 | 55 | – | – |
| CC(C)C(/C=C1\OC(=O)NC1=O)c1ccc(-c2ccc3cccc(F)c3c2)[nH]c1=O (racemic) [Compound #62, (Z)-5-(2-(6-(8-fluoronaphthalen-2-yl)-2-oxo-1,2-dihydropyridin-3-yl)-3-methylbutylidene)oxazolidine-2,4-dione] | – | – | 8.6 | reverse suppression of glucose stimulate insulin secretion (GSIS) by sulprostone |
| CC(=C1OC(=O)NC1=O)C(c1ccc(-c2ccc3cccc(F)c3c2)[nH]c1=O)C(C)C (stereo not drawn) [Compound 96] | 17 | 39 | – | – |
| CC(C)C(/C=C1\OC(=O)NC1=O)c1ccc(-c2ccc3c(c2)OCCO3)[nH]c1=O (racemic) [Compound #85, (Z)-5-(2-(6-(2,3-dihydrobenzo[b][1,4]dioxin-6-yl)-2-oxo-2,3-dihydropyridin-3-yl)-3-methylbutylidene)oxazolidine-2,4-dione] | 44 | 122 | – | – |

The next lines start with results.

| Ki (EP3 receptor [1]) [nM] | IC50 (EP3 receptor [2]) [nM] | Ki (mEP3) [nM] | Compound | suppression of glucose stimulate insulin secretion (GSIS) by sulprostone (male Sprague Dawley rats) |
| --- | --- | --- | --- | --- |
| 8 | 27 | – | CC(C)C(CC1OC(=O)NC1=O)c1ccc(-c2ccc3cccc(F)c3c2)[nH]c1=O (stereo not drawn) [compound 74] | – |
| – | > 20000 | – | CC(C)(C)C(/C=C1/OC(=O)NC1=O)C1C=CC(c2ccc3cccc(F)c3c2)=NC1=O (mixture of isomers) [compound 275, (E)-5-(2-(6-(8-fluoronaphthalen-2-yl)-2-oxo-2,3-dihydropyridin-3-yl)-3,3-dimethylbutylidene)oxazolidine-2,4-dione] | – |
| 15 | 120 | – | O=C1NC(=O)C2(CCCC(c3ccc(-c4ccc5ccccc5c4)[nH]c3=O)C2)O1 (stereo not drawn) [compound 188, anti-7-(6-(naphthalen-2-yl)-2-oxo-1,2-dihydropyridin-3-yl)-1-oxa-3-azaspiro[4.5]decane-2,4-dione] | – |
| 27 | 92 | – | CC(C)C(c1ccc(-c2ccc3cccc(F)c3c2)[nH]c1=O)C1OC(=O)NC1=O (stereo not drawn) [compound 60] | – |
| 5 | – | – | CCn1ncc2c(F)cc(-c3ccc([C@]4(O)CC[C@H]5C[C@@H]4NC5=O)c(=O)[nH]3)cc21 (stereo in doubt) [Compound #300, 4-(6-(1-ethyl-4-fluoro-1H-indazol-6-yl)-2-oxo-1,2-dihydropyridin-3-yl)-4-hydroxy-6-azabicyclo[3.2.1]octan-7-one] | – |
| 5650 | 7600 | – | CC(C)C(/C=C1\OC(=O)NC1=O)c1ccc(-c2ccc3c(c2)OC(F)(F)O3)[nH]c1=O (racemic) [Compound #276, (Z)-5-(2-(6-(2,2-difluorobenzo[d][1,3]dioxol-5-yl)-2-oxo-2,3-dihydropyridin-3-yl)-3-methylbutylidene)oxazolidine-2,4-dione] | – |
| 16 | 109 | – | O=C1NC(=O)[C@]2(CCC[C@H](c3ccc(-c4ccc5ccccc5c4)[nH]c3=O)C2)O1 [Compound #189, Syn-7-(6-(naphthalen-2-yl)-2-oxo-1,2-dihydropyridin-3-yl)-1-oxa-3-azaspiro[4.5]decane-2,4-dione] | – |
